Values after ≈ are worked out from the molar mass of the structure shown. Like-named read-outs stand apart in the source and are kept apart here.
Experiments:
CYP3A4 = details: cited from earlier work
HBV [1] = assay: HBV replication inhibition assay; format: cell-based, HBV genotype D; details: for activity at 10 µM: Hepatitis B virus, HepDES19, 72 h; for anti-HBV activity in words: initial screening, SAR discussion
HBV [2] = details: effective concentration 90%; cited from earlier work
[3] = test system: HBV DNA, HBsAg and pregenomic RNA; details: after 28 days of treatment with GLS4; cited from earlier work
HCV genotype 1a = details: read-out: GT1a EC50; HCV NS5A inhibitors; cited from earlier work
HCV genotype 1b = details: read-out: GT1b EC50; HCV NS5A inhibitors; cited from earlier work

## C[C@@H](O[C@H]1OCCN(Cc2n[nH]c(=O)[nH]2)[C@H]1c1ccc(F)cc1)c1cc(C(F)(F)F)cc(C(F)(F)F)c1 [Aprepitant]
CYP3A4
  CYP3A4 inhibition in words: moderate CYP3A4 inhibitor

## Nc1ccn([C@@H]2CS[C@H](CO)O2)c(=O)n1 [Compound 3TC, lamivudine]
HBV [1]; read-out: Minus DNA (%) (10μM)
  activity at 10 µM: 54.6%
HBV [1]; read-out: Plus DNA (%) (10μM)
  activity at 10 µM: 16.2%

## CCOC(=O)C1=C(CN2CCC3(CCNC3)C2=O)NC(c2nccs2)=NC1c1ccc(F)cc1Br (stereo not drawn) [Compound 5b, ethyl 4-(2-bromo-4-fluorophenyl)-6-((1-oxo-2,7-diazaspiro[4.4]nonan-2-yl)methyl)-2-(thiazol-2-yl)-1,4-dihydropyrimidine-5-carboxylate]
HBV [1]
  anti-HBV activity in words: inactive

## CCOC(=O)C1=C(CN2CC3(CCNC3)CC2=O)NC(c2nccs2)=NC1c1ccc(F)cc1Br (stereo not drawn) [Compound 5c, ethyl 4-(2-bromo-4-fluorophenyl)-6-((3-oxo-2,7-diazaspiro[4.4]nonan-2-yl)methyl)-2-(thiazol-2-yl)-1,4-dihydropyrimidine-5-carboxylate]
HBV [1]
  anti-HBV activity in words: inactive

## CCOC(=O)C1=C(CN2CCC3(CCNC3)CC2)NC(c2nccs2)=NC1c1ccc(F)cc1Br (stereo not drawn) [Compound 5e, ethyl 6-((2,8-diazaspiro[4.5]decan-8-yl)methyl)-4-(2-bromo-4-fluorophenyl)-2-(thiazol-2-yl)-1,4-dihydropyrimidine-5-carboxylate]
HBV [1]
  anti-HBV activity in words: inactive

## CCOC(=O)C1=C(CN2CCC3(CCNC3)C2)NC(c2nccs2)=NC1c1ccc(F)cc1Br (stereo not drawn) [Compound 5i, ethyl 6-((2,7-diazaspiro[4.4]nonan-2-yl)methyl)-4-(2-bromo-4-fluorophenyl)-2-(thiazol-2-yl)-1,4-dihydropyrimidine-5-carboxylate]
HBV [1]
  anti-HBV activity in words: inactive or less potent

## CCOC(=O)C1=C(CN2CCOCC2)NC(c2nccs2)=N[C@H]1c1ccc(F)cc1Br [GLS4, Ethyl4-(2-bromo-4-fluorophenyl)-6-(morpholinomethyl)-2-(thiazol-2-yl)-1,4-dihydropyrimidine-5-carboxylate]
HBV [2]
  EC90: 0.0557 µg/mL (≈ 0.109 µM)
[3]
  HBV DNA, HBsAg and pregenomic RNA in patients: strong downward trend

## COC(=O)N[C@H](C(=O)N1CC2(CC2)C[C@H]1c1nc(-c2ccc3c(c2)C(F)(F)c2cc(-c4ccc5[nH]c([C@@H]6[C@H]7CC[C@H](C7)N6C(=O)[C@@H](NC(=O)OC)C(C)C)nc5c4)ccc2-3)c[nH]1)C(C)C [Ledipasvir]
HCV genotype 1a
  EC50: 0.031 nM
HCV genotype 1b
  EC50: 0.004 nM

## C[C@@H](OC[C@@]1(c2ccccc2)CC[C@]2(CCC(=O)N2)CN1)c1cc(C(F)(F)F)cc(C(F)(F)F)c1 [Rolapitant]
CYP3A4
  CYP3A4 inhibition in words: no inhibitory effect

Source: publication PMC10591454 (European journal of medicinal chemistry, 2021)
